# Results published in patent US6525001B1, “Substituted pyrimidine and pyridine herbicides” (Mid-American Commercialization Corporation, priority 1997, dated 2003).
# What was measured:
# Assay in all cases: Test B pre-/postemergence
# Type in all cases: in vivo
# Set-up in all cases: key: 0 is no effect; 10 is complete control
# [1] = test system: bedstraw (Galium aparine)
# How it was run: (§1)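 Seeds were planted and sprayed preemergence, while plants at 2 to 18 cm (1- to 4-leaf stage) were sprayed postemergence at the same time, with test chemical in a non-phytotoxic solvent mixture containing surfactant. After twelve to sixteen days in a greenhouse, injury was rated visually against untreated controls on a 0–10 scale.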
# [2] = test system: cocklebur (Xanthium strumarium)
# How it was run: as §1
# corn (Zea mays) = test system: corn (Zea mays)
# How it was run: as §1
# [3] = test system: crabgrass (Digitaria sanguinalis)
# How it was run: as §1
# [4] = test system: giant foxtail (Setaria faberii)
# How it was run: as §1
# [5] = test system: momingglory (Ipomoea hederacea)
# How it was run: as §1
# [6] = test system: pigweed (Amaranthus retroflexus)
# How it was run: as §1
# [7] = test system: purple nutsedge (Cyperus rotundus); settings: for Plant response rating, Nutsedge: Preemergence; for Nutsedge plant response rating: Postemergence
# How it was run: as §1
# rape (Brassica napus) = test system: rape (Brassica napus)
# How it was run: as §1
# soybean (Glycine max) = test system: soybean (Glycine max)
# How it was run: as §1
# [8] = test system: sugar beet (Beta vulgaris)
# How it was run: as §1
# [9] = test system: velvetleaf (Abutilon theophrasti)
# How it was run: as §1
# [10] = test system: wheat (Triticum aestivum)
# How it was run: as §1
# wild oat (Avena fatua) = test system: wild oat (Avena fatua)
# How it was run: as §1
# [11] = Preemergence, Rate 62 g/ha, scale of 0 to 10
smiles,measurement,setting,value
Cc1cnc(-n2ccc(C(F)(F)C(F)(F)F)n2)nc1C(=O)c1cccc(OC(F)(F)F)c1 [Compound 62],"Plant response rating, Bedstraw",[1]; [11],0
same,Bedstraw plant response rating,"[1]; Rate 62 g/ha, Postemergence",3
same,Bedstraw plant response rating,"[1]; Rate 125 g/ha, Postemergence",3
same,"Plant response rating, Bedstraw","[1]; Rate 125 g/ha, Preemergence",1
same,"Plant response rating, Bedstraw","[1]; Rate 250 g/ha, Postemergence",3
same,"Plant response rating, Bedstraw","[1]; Rate 250 g/ha, Preemergence",2
same,"Plant response rating, Bedstraw","[1]; Rate 500 g/ha, Postemergence",4
same,"Plant response rating, Bedstraw","[1]; Rate 500 g/ha, Preemergence",6
same,"Plant response rating, Cocklebur",[2]; [11],0
same,Cocklebur plant response rating,"[2]; Rate 62 g/ha, Postemergence",2
same,Cocklebur plant response rating,"[2]; Rate 125 g/ha, Postemergence",5
same,"Plant response rating, Cocklebur","[2]; Rate 125 g/ha, Preemergence",0
same,"Plant response rating, Cocklebur","[2]; Rate 250 g/ha, Postemergence",7
same,"Plant response rating, Cocklebur","[2]; Rate 500 g/ha, Postemergence",7
same,"Plant response rating, Cocklebur","[2]; Rate 500 g/ha, Preemergence",0
same,"Plant response rating, Corn",corn (Zea mays); [11],0
same,Corn plant response rating,"corn (Zea mays); Rate 62 g/ha, Postemergence",1
same,Corn plant response rating,"corn (Zea mays); Rate 125 g/ha, Postemergence",2
same,"Plant response rating, Corn","corn (Zea mays); Rate 125 g/ha, Preemergence",0
same,"Plant response rating, Corn","corn (Zea mays); Rate 250 g/ha, Postemergence",2
same,"Plant response rating, Corn","corn (Zea mays); Rate 250 g/ha, Preemergence",1
same,"Plant response rating, Corn","corn (Zea mays); Rate 500 g/ha, Postemergence",2
same,"Plant response rating, Corn","corn (Zea mays); Rate 500 g/ha, Preemergence",2
same,"Plant response rating, Crabgrass",[3]; [11],2
same,Crabgrass plant response rating,"[3]; Rate 62 g/ha, Postemergence",2
same,Crabgrass plant response rating,"[3]; Rate 125 g/ha, Postemergence",3
same,"Plant response rating, Crabgrass","[3]; Rate 125 g/ha, Preemergence",3
same,"Plant response rating, Crabgrass","[3]; Rate 250 g/ha, Postemergence",5
same,"Plant response rating, Crabgrass","[3]; Rate 250 g/ha, Preemergence",9
same,"Plant response rating, Crabgrass","[3]; Rate 500 g/ha, Postemergence",8
same,"Plant response rating, Crabgrass","[3]; Rate 500 g/ha, Preemergence",10
same,"Plant response rating, Giant foxtail",[4]; [11],1
same,Giant foxtail plant response rating,"[4]; Rate 62 g/ha, Postemergence",1
same,Giant foxtail plant response rating,"[4]; Rate 125 g/ha, Postemergence",2
same,"Plant response rating, Giant foxtail","[4]; Rate 125 g/ha, Preemergence",2
same,"Plant response rating, Giant foxtail","[4]; Rate 250 g/ha, Postemergence",2
same,"Plant response rating, Giant foxtail","[4]; Rate 250 g/ha, Preemergence",4
same,"Plant response rating, Giant foxtail","[4]; Rate 500 g/ha, Postemergence",3
same,"Plant response rating, Giant foxtail","[4]; Rate 500 g/ha, Preemergence",4
same,"Plant response rating, Morningglory",[5]; [11],1
same,Morningglory plant response rating,"[5]; Rate 62 g/ha, Postemergence",3
same,Morningglory plant response rating,"[5]; Rate 125 g/ha, Postemergence",4
same,"Plant response rating, Morningglory","[5]; Rate 125 g/ha, Preemergence",2
same,"Plant response rating, Morningglory","[5]; Rate 250 g/ha, Postemergence",9
same,"Plant response rating, Morningglory","[5]; Rate 250 g/ha, Preemergence",4
same,"Plant response rating, Morningglory","[5]; Rate 500 g/ha, Postemergence",10
same,"Plant response rating, Morningglory","[5]; Rate 500 g/ha, Preemergence",7
same,"Plant response rating, Redroot pigweed",[6]; [11],8
same,Redroot pigweed plant response rating,"[6]; Rate 62 g/ha, Postemergence",8
same,Redroot pigweed plant response rating,"[6]; Rate 125 g/ha, Postemergence",9
same,"Plant response rating, Redroot pigweed","[6]; Rate 125 g/ha, Preemergence",9
same,"Plant response rating, Redroot pigweed","[6]; Rate 250 g/ha, Postemergence",9
same,"Plant response rating, Redroot pigweed","[6]; Rate 250 g/ha, Preemergence",10
same,"Plant response rating, Redroot pigweed","[6]; Rate 500 g/ha, Postemergence",10
same,"Plant response rating, Redroot pigweed","[6]; Rate 500 g/ha, Preemergence",10
same,"Plant response rating, Nutsedge","[7]; Rate 62 g/ha, scale of 0 to 10",0
same,Nutsedge plant response rating,[7]; Rate 62 g/ha,0
same,Nutsedge plant response rating,[7]; Rate 125 g/ha,0
same,"Plant response rating, Nutsedge",[7]; Rate 125 g/ha,0
same,"Plant response rating, Nutsedge",[7]; Rate 250 g/ha,0
same,"Plant response rating, Nutsedge",[7]; Rate 500 g/ha,0
same,"Plant response rating, Rape",rape (Brassica napus); [11],0
same,Rape plant response rating,"rape (Brassica napus); Rate 62 g/ha, Postemergence",2
same,Rape plant response rating,"rape (Brassica napus); Rate 125 g/ha, Postemergence",2
same,"Plant response rating, Rape","rape (Brassica napus); Rate 125 g/ha, Preemergence",1
same,"Plant response rating, Rape","rape (Brassica napus); Rate 250 g/ha, Postemergence",2
same,"Plant response rating, Rape","rape (Brassica napus); Rate 250 g/ha, Preemergence",2
same,"Plant response rating, Rape","rape (Brassica napus); Rate 500 g/ha, Postemergence",3
same,"Plant response rating, Rape","rape (Brassica napus); Rate 500 g/ha, Preemergence",3
same,"Plant response rating, Soybean",soybean (Glycine max); [11],0
same,Soybean plant response rating,"soybean (Glycine max); Rate 62 g/ha, Postemergence",1
same,Soybean plant response rating,"soybean (Glycine max); Rate 125 g/ha, Postemergence",1
same,"Plant response rating, Soybean","soybean (Glycine max); Rate 125 g/ha, Preemergence",0
same,"Plant response rating, Soybean","soybean (Glycine max); Rate 250 g/ha, Postemergence",1
same,"Plant response rating, Soybean","soybean (Glycine max); Rate 250 g/ha, Preemergence",0
same,"Plant response rating, Soybean","soybean (Glycine max); Rate 500 g/ha, Postemergence",2
same,"Plant response rating, Soybean","soybean (Glycine max); Rate 500 g/ha, Preemergence",1
same,"Plant response rating, Sugarbeets",[8]; [11],8
same,Sugarbeets plant response rating,"[8]; Rate 62 g/ha, Postemergence",9
same,Sugarbeets plant response rating,"[8]; Rate 125 g/ha, Postemergence",9
same,"Plant response rating, Sugarbeets","[8]; Rate 125 g/ha, Preemergence",10
same,"Plant response rating, Sugarbeets","[8]; Rate 250 g/ha, Postemergence",9
same,"Plant response rating, Sugarbeets","[8]; Rate 250 g/ha, Preemergence",10
same,"Plant response rating, Sugarbeets","[8]; Rate 500 g/ha, Postemergence",9
same,"Plant response rating, Sugarbeets","[8]; Rate 500 g/ha, Preemergence",10
same,"Plant response rating, Velvetleaf",[9]; [11],1
same,Velvetleaf plant response rating,"[9]; Rate 62 g/ha, Postemergence",2
same,Velvetleaf plant response rating,"[9]; Rate 125 g/ha, Postemergence",2
same,"Plant response rating, Velvetleaf","[9]; Rate 125 g/ha, Preemergence",2
same,"Plant response rating, Velvetleaf","[9]; Rate 250 g/ha, Postemergence",2
same,"Plant response rating, Velvetleaf","[9]; Rate 250 g/ha, Preemergence",2
same,"Plant response rating, Velvetleaf","[9]; Rate 500 g/ha, Postemergence",3
same,"Plant response rating, Velvetleaf","[9]; Rate 500 g/ha, Preemergence",7
same,"Plant response rating, Wheat",[10]; [11],0
same,Wheat plant response rating,"[10]; Rate 62 g/ha, Postemergence",1
same,Wheat plant response rating,"[10]; Rate 125 g/ha, Postemergence",2
same,"Plant response rating, Wheat","[10]; Rate 125 g/ha, Preemergence",0
same,"Plant response rating, Wheat","[10]; Rate 250 g/ha, Postemergence",2
same,"Plant response rating, Wheat","[10]; Rate 250 g/ha, Preemergence",0
same,"Plant response rating, Wheat","[10]; Rate 500 g/ha, Postemergence",3
same,"Plant response rating, Wheat","[10]; Rate 500 g/ha, Preemergence",0
same,"Plant response rating, Wild oats",wild oat (Avena fatua); [11],1
same,Wild oats plant response rating,"wild oat (Avena fatua); Rate 62 g/ha, Postemergence",1
same,Wild oats plant response rating,"wild oat (Avena fatua); Rate 125 g/ha, Postemergence",1
same,"Plant response rating, Wild oats","wild oat (Avena fatua); Rate 125 g/ha, Preemergence",3
same,"Plant response rating, Wild oats","wild oat (Avena fatua); Rate 250 g/ha, Postemergence",1
same,"Plant response rating, Wild oats","wild oat (Avena fatua); Rate 250 g/ha, Preemergence",4
same,"Plant response rating, Wild oats","wild oat (Avena fatua); Rate 500 g/ha, Postemergence",3
same,"Plant response rating, Wild oats","wild oat (Avena fatua); Rate 500 g/ha, Preemergence",4
